Test results published in US20240043435A1, “TYK-2 INHIBITOR” (BEIGENE, LTD., priority 2020, published 2024).

How the values were obtained:
[1] = molecular target: T1, TYK2-JH2 (aa 575-869, in-house) protein (Homo sapiens, UniProt P29597); assay: TYK2-JH2 biochemical assay (HTRF probe displacement); type: binding; settings: Biochemical assay; read-out: TYK2-JH2 IC50
T1 construct: TYK2-JH2 (aa 575-869, in-house) protein; made in house
Method in brief: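 HTRF probe-displacement format: compound dilutions (10 points, 5-fold, from 500 uM in DMSO at 500×) were combined with 0.2 nM TYK2-JH2 protein for 0.5 h at room temperature in HEPES pH 7.5 buffer with MgCl2, BSA, DTT and Brij-35. Percent inhibition came from the 615/665 nm fluorescence ratio, fitted to a four-parameter logistic for IC50.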

[2] = test system: JAK2, TYK2/p-STAT4 (Tyr693) activated by IL-12 in NK-92 cell line; assay: IL-12-JAK2, TYK2/p-STAT4 (Tyr693) inhibition IC50 cellular assay; type: cell-based; settings: for IC50: NK92, Cellular assay, read-out: pSTAT4/IL-12 IC50; for Selectivity fold (TYK2/JAK2): Cellular assay, pSTAT5/GM-CSF IC50 vs pSTAT4/IL-12 IC50
Method in brief: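 p-STAT4 (Tyr693) in lysates was measured by AlphaLISA SureFire Ultra after a 30 min IL-12 challenge (40 ng/ml final) at 37° C. Overnight-starved, IL-2-free NK-92 cells had been pretreated 1 h with compound at 10000 to 0.61 nM (4-fold, 8 points). IC50 values came from four-parameter logistic fitting.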

pSTAT5/GM-CSF = pSTAT5/GM-CSF cellular assay (JAK2 selectivity); type: cell-based

T1 sequence (P29597 575-869): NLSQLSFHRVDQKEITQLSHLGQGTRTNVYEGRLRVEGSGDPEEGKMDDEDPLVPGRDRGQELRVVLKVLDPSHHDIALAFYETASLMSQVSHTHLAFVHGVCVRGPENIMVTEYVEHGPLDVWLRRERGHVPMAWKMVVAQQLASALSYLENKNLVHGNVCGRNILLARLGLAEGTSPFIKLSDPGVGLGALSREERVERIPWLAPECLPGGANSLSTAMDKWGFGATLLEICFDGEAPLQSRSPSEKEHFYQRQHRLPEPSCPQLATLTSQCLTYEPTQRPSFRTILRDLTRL

SMILES	IC50 [1] [nM]	IC50 [2] [nM]	IC50 (pSTAT5/GM-CSF) [nM]	Selectivity fold (TYK2/JAK2) (pSTAT5/GM-CSF; pSTAT5/GM-CSF vs pSTAT4/IL-12) [fold]	Selectivity fold (TYK2/JAK2) [2] [fold]
COCCOc1cc(Nc2cc(NC(C)=O)ncc2-c2ccc(N3CCOCC3=O)cn2)nc(S(C)(=O)=O)c1 [Example G4, N-(4′-((4-(2-methoxyethoxy)-6-(methylsulfonyl)pyridin-2-yl)amino)-5-(3-oxomorpholino)-[2,3′-bipyridin]-6′-yl)acetamide]	0.048	16	> 10000	>625	–
CC(=O)Nc1cc(Nc2cc(OC(C)C)cc(S(C)(=O)=O)n2)c(-c2ccc(C(C)(C)O)cn2)cn1 [Example H2, N-(5-(2-hydroxypropan-2-yl)-4′-((4-isopropoxy-6-(methylsulfonyl)pyridin-2-yl)amino)-[2,3′-bipyridin]-6′-yl)acetamide]	0.036	0.939	> 10000	–	>10649
CC(=O)Nc1cc(Nc2cc(C(F)(F)F)cc(S(C)(=O)=O)c2)c(-c2ccc(C(C)(C)O)cn2)cn1 [Example H3, N-(5-(2-hydroxypropan-2-yl)-4′-((3-(methylsulfonyl)-5-(trifluoromethyl)phenyl)amino)-[2,3′-bipyridin]-6′-yl)acetamide]	0.048	8.52	7180	–	>843
COC(C)COc1cc(Nc2cc(NC(C)=O)ncc2-c2ccc(C(C)(C)O)cn2)nc(S(C)(=O)=O)c1 (stereo not shown) [Example H7, N-(5-(2-hydroxypropan-2-yl)-4′-((4-(2-methoxypropoxy)-6-(methylsulfonyl)pyridin-2-yl)amino)-[2,3′-bipyridin]-6′-yl)acetamide]	0.046	1.22	> 10000	–	>8196
CC(=O)Nc1cc(Nc2cc(OCCO)cc(S(C)(=O)=O)n2)c(-c2ccc(C(C)(C)O)cn2)cn1 [Example H8, N-(4′-((4-(2-hydroxyethoxy)-6-(methylsulfonyl)pyridin-2-yl)amino)-5-(2-hydroxypropan-2-yl)-[2,3′-bipyridin]-6′-yl)acetamide]	0.041	21.7	> 10000	–	>461
CC(=O)Nc1cc(Nc2cc(OCC3COC3)cc(S(C)(=O)=O)n2)c(-c2ccc(C(C)(C)O)cn2)cn1 [Example H12, N-(5-(2-hydroxypropan-2-yl)-4′-((6-(methylsulfonyl)-4-(oxetan-3-ylmethoxy)pyridin-2-yl)amino)-[2,3′-bipyridin]-6′-yl)acetamide]	0.022	5.1	> 10000	–	>1960

These reach a lower IC50 [1]. Values come first.

IC50 [1] [nM]	IC50 [2] [nM]	IC50 (pSTAT5/GM-CSF) [nM]	SMILES	Selectivity fold (TYK2/JAK2) (pSTAT5/GM-CSF; pSTAT5/GM-CSF vs pSTAT4/IL-12) [fold]	Selectivity fold (TYK2/JAK2) [2] [fold]
0.015	0.323	1680	CC(=O)Nc1cc(Nc2cccc(S(C)(=O)=O)n2)c(-c2ccc(C(C)(C)O)cn2)cn1 [Example H5, N-(5-(2-hydroxypropan-2-yl)-4′-((6-(methylsulfonyl)pyridin-2-yl)amino)-[2,3′-bipyridin]-6′-yl)acetamide]	–	5185
0.014	1.25	8870	COCCOc1cc(Nc2cc(NC(C)=O)ncc2-c2ccc(C(C)(C)O)cn2)nc(S(C)(=O)=O)c1 [Example H6, N-(5-(2-hydroxypropan-2-yl)-4′-((4-(2-methoxyethoxy)-6-(methylsulfonyl)pyridin-2-yl)amino)-[2,3′-bipyridin]-6′-yl)acetamide]	–	7097
0.016	0.503	1580	CC(=O)Nc1cc(Nc2cc(C)cc(S(C)(=O)=O)n2)c(-c2ccc(C(C)(C)O)cn2)cn1 [Example H9, N-(5-(2-hydroxypropan-2-yl)-4′-((4-methyl-6-(methylsulfonyl)pyridin-2-yl)amino)-[2,3′-bipyridin]-6′-yl)acetamide]	–	3147
0.017	16.4	> 10000	CC(=O)Nc1cc(Nc2cc(O[C@H]3C[C@H](O)C3)cc(S(C)(=O)=O)n2)c(-c2ccc(C(C)(C)O)cn2)cn1 [Example H10]	–	>607
